Test results from patent US10626112B2, “Heterocyclic sulfonamide derivative and medicine comprising same” (EA PHARMA CO., LTD., priority 2014, dated 2020).

biological target: human TRPA1 (Homo sapiens (Human), UniProt O75762); experiment: Measurement of TRPA1 antagonist activity (1): intracellular calcium increase; type: cell-based; details: 293T cells transfected with human TRPA1 expression plasmid; allylisothiocyanate 20 μM stimulation; intracellular calcium fluorescence; read-out: hTRPA1 IC50
In short: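 HEK293T cells transiently transfected with full-length human TRPA1, loaded with Calcium4 dye in HBSS/20 mM HEPES pH 7.2. Test compound preincubated 10 min, then allylisothiocyanate added at 20 μM final and fluorescence change followed for 5 min. IC50 from sigmoid fit of percent inhibition relative to agonist and buffer controls.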

human TRPA1, sequence (O75762 whole entry): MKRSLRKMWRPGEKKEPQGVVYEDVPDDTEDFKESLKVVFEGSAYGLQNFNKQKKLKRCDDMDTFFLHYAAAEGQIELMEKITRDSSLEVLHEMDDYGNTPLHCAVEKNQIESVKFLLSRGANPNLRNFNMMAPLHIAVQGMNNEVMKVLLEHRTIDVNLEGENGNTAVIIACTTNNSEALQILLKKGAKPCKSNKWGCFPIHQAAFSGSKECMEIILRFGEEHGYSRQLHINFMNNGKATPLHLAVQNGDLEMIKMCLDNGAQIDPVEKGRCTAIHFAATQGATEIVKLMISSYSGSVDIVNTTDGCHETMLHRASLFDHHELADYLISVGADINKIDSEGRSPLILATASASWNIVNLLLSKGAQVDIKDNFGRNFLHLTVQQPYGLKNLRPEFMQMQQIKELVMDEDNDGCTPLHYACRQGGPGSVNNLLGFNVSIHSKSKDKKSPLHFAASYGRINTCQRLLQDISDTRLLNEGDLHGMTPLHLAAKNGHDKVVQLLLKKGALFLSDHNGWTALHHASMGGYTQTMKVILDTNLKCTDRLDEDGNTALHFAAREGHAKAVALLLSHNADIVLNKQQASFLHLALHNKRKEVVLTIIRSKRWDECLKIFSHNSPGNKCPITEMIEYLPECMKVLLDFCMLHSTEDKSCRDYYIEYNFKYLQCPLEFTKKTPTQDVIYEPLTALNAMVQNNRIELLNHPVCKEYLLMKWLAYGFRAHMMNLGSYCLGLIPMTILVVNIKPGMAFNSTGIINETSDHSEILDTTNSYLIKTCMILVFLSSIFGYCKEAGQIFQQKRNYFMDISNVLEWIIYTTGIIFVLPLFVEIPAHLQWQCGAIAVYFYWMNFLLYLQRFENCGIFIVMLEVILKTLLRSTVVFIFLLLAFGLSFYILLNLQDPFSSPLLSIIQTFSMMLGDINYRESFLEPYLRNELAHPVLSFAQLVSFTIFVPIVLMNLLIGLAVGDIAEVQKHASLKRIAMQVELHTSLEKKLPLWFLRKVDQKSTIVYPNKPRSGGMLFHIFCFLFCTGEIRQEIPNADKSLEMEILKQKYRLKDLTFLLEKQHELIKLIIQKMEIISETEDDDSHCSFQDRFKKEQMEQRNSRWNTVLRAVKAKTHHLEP

Compared with `CN(C)c1ccc(-c2cc(CNC(=O)[C@@H]3CCCN3S(=O)(=O)c3cc4ccccc4o3)ccn2)cn1` [Example 125, (2S)-1-(benzofuran-2-ylsulfonyl)-N-[[2-[6-(dimethylamino)-3-pyridyl]-4-pyridyl]methyl]pyrrolidine-2-carboxamide], `O=C(NCc1cc(-c2ccc(C(F)(F)F)cc2)cnn1)[C@@H]1CCCN1S(=O)(=O)c1cc2ccccc2o1` [Example 210, (2S)-1-(benzofuran-2-ylsulfonyl)-N-[[5-[4-(trifluoromethyl)phenyl]-pyridazin-3-yl]methyl]pyrrolidine-2-carboxamide] is 13-fold lower in IC50: 0.24 µM for the first, 0.019 µM for the second.

Going from `O=C(NCc1cc(-c2ccc(C(F)(F)F)cc2)ncn1)[C@@H]1CCCN1S(=O)(=O)c1cc2cc(F)ccc2o1` [Example 90, (2S)-1-(5-fluorobenzofuran-2-yl)sulfonyl-N-[[6-[4-(trifluoromethyl)phenyl]pyrimidin-4-yl]methyl]pyrrolidine-2-carboxamide] to `O=C(NCc1ccc(COc2ccccc2)cc1)[C@@H]1CCCN1S(=O)(=O)c1cc2ccccc2o1` [Example 58, (2S)-1-(benzofuran-2-ylsulfonyl)-N-[[4-(phenoxymethyl)phenyl]methyl]-pyrrolidine-2-carboxamide], the IC50 rises from 0.00084 µM to 0.43 µM (510-fold).

First: O=C(NCc1cccc(-c2ccc(Cl)cc2)c1)[C@@H]1CCCN1S(=O)(=O)c1cc2cc(F)ccc2o1 [Example 156, (2S)-N-[[3-(4-chlorophenyl)phenyl]methyl]-1-(5-fluorobenzofuran-2-yl)sulfonyl-pyrrolidine-2-carboxamide]
Second: O=C(NCc1cc(-c2ccc(C(F)(F)F)cn2)ccn1)[C@@H]1C[C@@H](O)CN1S(=O)(=O)c1cc2cc(F)ccc2o1 [Example 256, (2S,4R)-1-(5-fluorobenzofuran-2-yl)sulfonyl-4-hydroxy-N-[[4-[5-(trifluoromethyl)-2-pyridyl]-2-pyridyl]methyl]pyrrolidine-2-carboxamide]
The IC50 of the first is 43-fold lower: 0.0021 µM for the first, 0.091 µM for the second. The first is the more potent here.

`O=C(NCc1cc(-c2ccc(C(F)(F)F)nc2)ncn1)[C@@H]1CCCN1S(=O)(=O)c1cc2ccccc2o1` [Example 205, (2S)-1-(benzofuran-2-ylsulfonyl)-N-[[6-[6-(trifluoromethyl)-3-pyridyl]pyrimidin-4-yl]methyl]pyrrolidine-2-carboxamide] and `N#Cc1ccc(COc2cccc(CNC(=O)[C@@H]3CCCN3S(=O)(=O)c3cc4ccccc4o3)c2)cc1` [Example 1, (2S)-1-(benzofuran-2-ylsulfonyl)-N-[[3-[(4-cyanophenyl)methoxy]phenyl]methyl]pyrrolidine-2-carboxamide] are within 1.5-fold of each other in IC50: 0.004 µM for the first, 0.003 µM for the second.

Compared with `C[C@H](NS(=O)(=O)c1cc2cc(F)ccc2o1)C(=O)NCc1cccc(OCC2CCOCC2)c1` [Example 185, (2S)-2-[(5-fluorobenzofuran-2-yl)sulfonylamino]-N-[[3-(tetrahydropyran-4-ylmethoxy)phenyl]methyl]propanamide], `O=C(NCc1cccc(Cc2ccccc2)c1)[C@@H]1CCCN1S(=O)(=O)c1cc2cc(F)ccc2o1` [Example 319, (2S)—N-[(3-benzylphenyl)methyl]-1-(5-fluorobenzofuran-2-yl)sulfonyl-pyrrolidine-2-carboxamide] is 9.3-fold lower in IC50: 0.25 µM for the first, 0.027 µM for the second.

First: O=C(NCc1ccnc(-c2cc(F)c(F)cc2O)c1)[C@@H]1CCCN1S(=O)(=O)c1cc2cc(F)ccc2o1 [Example 137, (2S)-N-[[2-(4,5-difluoro-2-hydroxy-phenyl)-4-pyridyl]methyl]-1-(5-fluorobenzofuran-2-yl)sulfonyl-pyrrolidine-2-carboxamide]
Second: O=C(NCc1cccc([S+]([O-])Cc2ccccc2)c1)[C@@H]1CCCN1S(=O)(=O)c1cc2ccccc2o1 (stereo partly drawn) [Example 188, (2S)-1-(benzofuran-2-ylsulfonyl)-N-[(3-benzylsulfinylphenyl)methyl]pyrrolidine-2-carboxamide]
The IC50 of the first is 31-fold lower: 0.029 µM for the first, 0.89 µM for the second. The first is the more potent here.

Going from `O=C(NCc1cccc(CCc2ccc(C(F)(F)F)cc2)c1)[C@@H]1CCCN1S(=O)(=O)c1cc2ccccc2o1` [Example 318, (2S)-1-(benzofuran-2-ylsulfonyl)-N-[[3-[2-[4-(trifluoromethyl)phenyl]ethyl]phenyl]methyl]pyrrolidine-2-carboxamide] to `O=C(NCc1cccc([S+]([O-])Cc2ccc(C(F)(F)F)cc2)c1)[C@@H]1CCCN1S(=O)(=O)c1cc2ccccc2o1` (stereo partly drawn) [Example 316, (2S)-1-(benzofuran-2-ylsulfonyl)-N-[[3-[[4-(trifluoromethyl)phenyl]methylsulfinyl]phenyl]methyl]pyrrolidine-2-carboxamide], the IC50 rises from 0.014 µM to 0.23 µM (16-fold). The first is the more potent here.

Compared with `O=C(NCc1ccc(OC(F)(F)F)cc1)[C@@H]1CCCN1S(=O)(=O)c1cc2cc(F)ccc2o1` [Example 66, (2S)-1-(5-fluorobenzofuran-2-yl)sulfonyl-N-[[4-(trifluoromethoxy)phenyl]methyl]-pyrrolidine-2-carboxamide], `O=C(NCc1cccc(Nc2ccc(C(F)(F)F)cc2)c1)[C@@H]1CCCN1S(=O)(=O)c1cc2cc(F)ccc2o1` [Example 296, (2S)-1-(5-fluorobenzofuran-2-yl)sulfonyl-N-[[3-[4-(trifluoromethyl)anilino]phenyl]methyl]pyrrolidine-2-carboxamide] is 2.7-fold lower in IC50: 0.021 µM for the first, 0.0079 µM for the second. The second is the more potent here.

First: O=C(NCc1cnnc(-c2ccc(C(F)(F)F)nc2)c1)[C@@H]1CCCN1S(=O)(=O)c1cc2ccccc2o1 [Example 209, (2S)-1-(benzofuran-2-ylsulfonyl)-N-[[6-[6-(trifluoromethyl)-3-pyridyl]pyridazin-4-yl]methyl]pyrrolidine-2-carboxamide]
Second: CN(C)c1ncc(-c2ccc(F)c(CNC(=O)[C@@H]3CCCN3S(=O)(=O)c3cc4ccccc4o3)c2)cn1 [Example 174, (2S)-1-(benzofuran-2-ylsulfonyl)-N-[[5-[2-(dimethylamino)pyrimidin-5-yl]-2-fluoro-phenyl]methyl]pyrrolidine-2-carboxamide]
The IC50 of the first is 3.8-fold higher: 0.11 µM for the first, 0.029 µM for the second. The second is the more potent here.

First: O=C(NCc1cc(-c2cnc(C(F)(F)F)nc2)ccn1)[C@@H]1CCCN1S(=O)(=O)c1cc2ccccc2o1 [Example 200, (2S)-1-(benzofuran-2-ylsulfonyl)-N-[[4-[2-(trifluoromethyl)pyrimidin-5-yl]-2-pyridyl]methyl]pyrrolidine-2-carboxamide]
Second: C[C@H](NS(=O)(=O)c1cc2cnccc2o1)C(=O)NCc1cc(-c2ccc(OC(F)(F)F)cc2)ncn1 [Example 305, (2S)-2-(furo[3,2-c]pyridin-2-ylsulfonylamino)-N-[[6-[4-(trifluoromethoxy)phenyl]pyrimidin-4-yl]methyl]propanamide]
The IC50 of the first is 1.6-fold lower: 0.016 µM for the first, 0.026 µM for the second.

Compared with “(2S)-1-(benzofuran-2-ylsulfonyl)-N-[[3-[6-(trifluoromethyl)-3-pyridyl]phenyl]methyl]pyrrolidine-2-carboxamide [Example 79]”, `O=C(NCc1cccc(OCc2ccc(C(F)(F)F)cc2)c1)[C@@H]1CC=CCN1S(=O)(=O)c1cc2ccccc2o1` [Example 187, (2S)-1-(benzofuran-2-ylsulfonyl)-N-[[3-[[4-(trifluoromethyl)phenyl]methoxy]phenyl]methyl]-3,6-dihydro-2H-pyridine-2-carboxamide] is 44-fold higher in IC50: 0.0016 µM for the first, 0.071 µM for the second.

`O=C(NCc1cc(-c2cc(Cl)cs2)ccn1)[C@@H]1CCCN1S(=O)(=O)c1cc2ccccc2o1` [Example 286, (2S)-1-(benzofuran-2-ylsulfonyl)-N-[[4-(4-chloro-2-thienyl)-2-pyridyl]methyl]pyrrolidine-2-carboxamide] and `N#Cc1ccc(-c2ccc(CNC(=O)[C@@H]3CCCN3S(=O)(=O)c3cc4ccccc4o3)cc2)cc1` [Example 170, (2S)-1-(benzofuran-2-ylsulfonyl)-N-[[4-(4-cyanophenyl)phenyl]methyl]-pyrrolidine-2-carboxamide] are within 1.5-fold of each other in IC50: 0.18 µM for the first, 0.23 µM for the second.

First: O=C(NCc1cncc(-c2ccc(C(F)(F)F)cn2)c1)[C@@H]1CCCN1S(=O)(=O)c1cc2cc(F)ccc2o1 [Example 141, (2S)-1-(5-fluorobenzofuran-2-yl)sulfonyl-N-[[5-[5-(trifluoromethyl)-2-pyridyl]-3-pyridyl]methyl]pyrrolidine-2-carboxamide]
Second: O=C(NCc1cccc(OCc2cccc(C(F)(F)F)n2)c1)[C@@H]1CCCN1S(=O)(=O)c1cc2cc(F)ccc2o1 [Example 25, (2S)-1-(5-fluorobenzofuran-2-yl)sulfonyl-N-[[3-[[6-(trifluoromethyl)-2-pyridyl]methoxy]phenyl]-methyl]pyrrolidine-2-carboxamide]
The IC50 of the first is 3.3-fold lower: 0.0033 µM for the first, 0.011 µM for the second.

Compared with `O=C(NCc1cccc(OCc2ccc(C(F)(F)F)nc2)c1)[C@@H]1CCCN1S(=O)(=O)c1cc2cc(F)ccc2o1` [Example 20, (2S)-1-(5-fluorobenzofuran-2-yl)sulfonyl-N-[[3-[[6-(trifluoromethyl)-3-pyridyl]methoxy]phenyl]-methyl]pyrrolidine-2-carboxamide], `O=C(NCc1cccc(-c2ccc(C(F)(F)F)cc2)c1)[C@@H]1CCCN1S(=O)(=O)c1cc2cc(F)ccc2o1` [Example 157, (2S)-1-(5-fluorobenzofuran-2-yl)sulfonyl-N-[[3-[4-(trifluoromethyl)phenyl]-phenyl]methyl]pyrrolidine-2-carboxamide] is 2.9-fold lower in IC50: 0.0014 µM for the first, 0.00048 µM for the second. The second is the more potent here.

Compared with `N#Cc1ccc(-c2cccc(CNC(=O)[C@@H]3CCCN3S(=O)(=O)c3cc4cc(F)ccc4o3)n2)cc1` [Example 146, (2S)-N-[[6-(4-cyanophenyl)-2-pyridyl]methyl]-1-(5-fluorobenzofuran-2-yl)sulfonyl-pyrrolidine-2-carboxamide], `O=C(NCc1ccnc(NCc2ccc(C(F)(F)F)cc2)c1)[C@@H]1CCCN1S(=O)(=O)c1cc2ccccc2o1` [Example 186, (2S)-1-(benzofuran-2-ylsulfonyl)-N-[[2-[[4-(trifluoromethyl)phenyl]methylamino]-4-pyridyl]methyl]pyrrolidine-2-carboxamide] is 3.6-fold lower in IC50: 0.31 µM for the first, 0.086 µM for the second. The second is the more potent here.

With `O=C(NCc1cc(C(F)(F)F)ccc1Cl)[C@@H]1CCCN1S(=O)(=O)c1cc2cnccc2o1` [Example 266, (2S)-N-[[2-chloro-5-(trifluoromethyl)phenyl]methyl]-1-furo[3,2-c]pyridin-2-ylsulfonyl-pyrrolidine-2-carboxamide] the IC50 was 0.038 µM.
